Assay results: article PMC10485906, “Development of a Dihydroquinoline–Pyrazoline GluN2C/2D-Selective Negative Allosteric Modulator of the N-Methyl-D-aspartate Receptor” (ACS Chemical Neuroscience, 2023)
Where two headings read alike, the source gives them in different places.

Columns and labels:
Tsc1^± mice = test system: Tsc1^± mice; parameters: method as in PMID 25081057; details: 28 mg/kg IP; heterozygote Tsc1^± mice; cited from earlier work
GluN1/GluN2D [1] = target: T1, GluN1/GluN2D (Rattus norvegicus, UniProt Q62645); parameters: GluN2B (NM_012574.1), GluN2C (NM_012575.3), and GluN2D (NM_022797.2) were provided by; expressed in transfected cells; host or cells: Xenopus laevis oocytes (cRNA injection); details: cited from earlier work
T1 sequence (Q62645 28-1323, other chains not shown): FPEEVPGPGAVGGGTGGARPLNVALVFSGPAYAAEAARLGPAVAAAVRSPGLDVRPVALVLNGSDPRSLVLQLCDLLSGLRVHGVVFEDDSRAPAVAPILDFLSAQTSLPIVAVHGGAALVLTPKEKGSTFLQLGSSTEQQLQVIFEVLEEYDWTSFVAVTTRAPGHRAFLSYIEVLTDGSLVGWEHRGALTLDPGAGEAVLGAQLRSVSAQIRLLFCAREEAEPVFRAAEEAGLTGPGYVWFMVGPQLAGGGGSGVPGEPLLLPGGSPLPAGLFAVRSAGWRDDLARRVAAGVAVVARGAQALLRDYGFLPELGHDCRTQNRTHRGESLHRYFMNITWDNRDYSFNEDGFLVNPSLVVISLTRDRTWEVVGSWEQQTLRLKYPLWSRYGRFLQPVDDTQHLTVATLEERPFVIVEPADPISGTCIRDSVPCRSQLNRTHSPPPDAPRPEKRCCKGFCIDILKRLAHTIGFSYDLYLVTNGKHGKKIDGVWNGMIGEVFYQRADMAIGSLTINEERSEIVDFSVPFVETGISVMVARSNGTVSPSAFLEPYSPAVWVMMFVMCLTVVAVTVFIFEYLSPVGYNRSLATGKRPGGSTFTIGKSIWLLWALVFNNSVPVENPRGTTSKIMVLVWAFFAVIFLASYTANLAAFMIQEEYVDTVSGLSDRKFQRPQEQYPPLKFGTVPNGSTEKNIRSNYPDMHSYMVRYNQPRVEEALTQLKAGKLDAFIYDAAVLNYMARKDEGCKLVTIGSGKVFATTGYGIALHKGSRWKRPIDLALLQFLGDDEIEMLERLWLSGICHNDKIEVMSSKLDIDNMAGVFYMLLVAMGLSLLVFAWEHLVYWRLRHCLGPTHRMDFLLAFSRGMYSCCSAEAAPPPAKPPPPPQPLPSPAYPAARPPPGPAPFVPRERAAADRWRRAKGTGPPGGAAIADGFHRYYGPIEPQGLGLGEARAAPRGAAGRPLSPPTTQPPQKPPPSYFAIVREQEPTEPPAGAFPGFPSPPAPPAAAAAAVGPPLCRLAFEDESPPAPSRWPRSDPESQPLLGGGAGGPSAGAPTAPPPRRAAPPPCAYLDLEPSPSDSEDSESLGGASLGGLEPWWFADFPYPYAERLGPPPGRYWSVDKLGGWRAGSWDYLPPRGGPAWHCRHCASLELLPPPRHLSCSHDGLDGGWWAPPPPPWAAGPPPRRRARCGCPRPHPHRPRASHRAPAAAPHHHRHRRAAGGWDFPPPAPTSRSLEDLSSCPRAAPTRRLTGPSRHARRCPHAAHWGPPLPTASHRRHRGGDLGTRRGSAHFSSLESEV

GluN1/GluN2D [2] = target: GluN1/GluN2D (Rattus norvegicus, UniProt P35439+Q62645); experiment: Whole-cell voltage-clamp recordings, HEK cells, GluN1/GluN2D (agonist dependence); assay type: cell-based
GluN1/GluN2D (Rattus norvegicus, UniProt P35439+Q62645), sequence (Q62645 28-1323, other chains not shown): as above
From the text: (§1) We previously described the actions of the GluN2C/GluN2D-preferring negative allosteric modulator DQP-1105 as dependent on glutamate (but not glycine) binding, in that DQP-1105 affinity increases after GluN1/GluN2D NMDARs bind glutamate.[32] […] The concentration-dependent relaxation is indicative of an agonist-induced increase in potency that leads to re-equilibration of the inhibitor after agonist binding induces an increase in inhibitor affinity. We investigated the glutamate dependence of compound 2i (GluN1/GluN2D, Figure 4; GluN1/GluN2C, Figure S2), DQP-1105 (Figure S1), and compound (S)-2a (DQP-69;[33]Figure S3) using the same protocols.
(§2) We preincubated cells with glycine and the inhibitor 2i (DQP-997-74) and compared inhibitor potency during the peak and steady-state current responses to glutamate application. […] To investigate the time course of 2i inhibition, we fitted the relaxation of the current response with a single exponential function. If the current response time course reflects 2i binding, then the reciprocal of τinhibition should be linearly related to its concentration, with the slope equal to kON and intercept equal to kOFF. […] The deactivation of GluN1/GluN2D receptors (5.3 ± 0.2 s) was slowed by the presence of compound 2i when applied at concentrations of 0.1 μM (7.3 ± 0.3 s; p = 0.017) and 0.3 μM (10.5 ± 1.0 s; p = 0.002) but not at 0.03 μM (5.6 ± 0.3 s; p = 0.518; Figure 4E). […] This phenomenon was previously discovered for QNZ-46, a glutamate-dependent GluN2C/2D-selective inhibitor with a different structural core.[42] As proposed in that study, the prolonged deactivation may indicate that 2i slows a conformational change necessary for glutamate unbinding or 2i may need to unbind before glutamate can unbind.
(§3) In addition, we evaluated how glutamate dependence affects inhibition of responses to brief agonist applications similar to phasic glutamate release that occurs at synapses. To do so, we preincubated cells expressing GluN1/GluN2D receptors with the inhibitor 2i and then applied trains of five brief pulses of NMDA (which dissociates more rapidly than glutamate) and glycine from a pressurized micropipette to mimic repetitive synaptic transmission (Figure 4F). We measured the peak amplitude and compared the concentration–response curves for the inhibition of the first and last response (Figure 4G). The initial train of pulses in the absence of drug controls for systematic errors such as internalization of receptors.
(§4) To further evaluate whether 2i followed the law of mass action, we coapplied different concentrations of 2i with glutamate during the steady-state glutamate and glycine responses of GluN1/GluN2D receptors expressed in HEK cells (Figure 4H). […] We also fitted the onset and offset time course of the inhibition produced by compound 2i with a single exponential function (Figure 4J).
(§5) HEK293 cells (HEK, ATCC CRL-1573) were plated on glass coverslips pretreated with 0.1 mg/mL poly-D-lysine and cultured in Dulbecco’s modified Eagle medium (DMEM) plus Glutamax (GIBCO 10569-10) supplemented with 10% fetal bovine serum, 10 U/mL of penicillin, and 10 μg/mL of streptomycin at 37 °C and 5% CO2. The cells were transiently transfected with cDNA encoding rat GluN1, GluN2D, and eGFP at a ratio of 1:1:5 by using the calcium phosphate precipitation method.[48] After 24–48 h following the transfection, the cells were perfused with external recording solution that contained (in mM) 3 KCl, 150 NaCl, 0.01 EDTA, 1.0 CaCl2, 10 HEPES, and 22 D-mannitol (the pH was adjusted to 7.4 with NaOH). The patch electrodes (resistance 3–5 MΩ) were prepared from thin-walled glass micropipettes (TW150F-4, World Precision Instruments, Sarasota, FL) by a dual-stage glass micropipette puller (PC-10, Narishige, Tokyo, Japan) and filled with internal solution containing (in mM) 110 D-gluconate, 110 CsOH, 30 CsCl, 5 HEPES, 4 NaCl, 0.5 CaCl2, 2 MgCl2, 5 BAPTA, 2 NaATP, and 0.3 NaGTP. […]

GluN1/GluN2D [3] = target: T1, GluN1/GluN2D; experiment: as above; assay type: cell-based
From the text: as §1, §2, §3, §4, §5

Question: With `Cc1ccc2[nH]c(=O)c(C3=NN(C(=O)CCC(=O)O)C(c4ccc(Br)cc4)C3)c(-c3ccccc3)c2c1` (centres unmarked) [compound 1, reference compound] as the compound, how does the “effect on seizure burden” value (Tsc1^± mice) read?
Answer: diminished seizure burden

Question: What about the IC50 (GluN1/GluN2D [1]) of the same compound?
Answer: 2.7 µM

Question: And the koff (GluN1/GluN2D [2]; HEK293, inhibitor preapplied, linear regression of 1/τinhibition vs concentration)?
Answer: 0.19 s⁻¹

Question: What about the IC50 (GluN1/GluN2D [2]; fifth of 5 brief NMDA (500 μM)/glycine (250 μM) pulses at 1 s intervals, read-out: IC50 pulse 5 (95% CI)) of the same compound?
Answer: 1.6 µM

Question: What about the IC50 (GluN1/GluN2D [2]; first of 5 brief NMDA (500 μM)/glycine (250 μM) pulses at 1 s intervals, read-out: IC50 pulse 1 (95% CI)) of the same compound?
Answer: 4.9 µM

Question: What about the Kd (GluN1/GluN2D [2]; inhibitor preapplied, from kON and kOFF, supplement) of the same compound?
Answer: 0.4 µM

Question: And the IC50 (GluN1/GluN2D [2]; peak current response to glutamate, inhibitor preapplied, read-out: IC50 peak (95% CI))?
Answer: 1.4 µM

Question: What about the IC50 (GluN1/GluN2D [2]; steady-state current response to glutamate, inhibitor preapplied, read-out: IC50 steady-state (95% CI)) of the same compound?
Answer: 0.72 µM

Question: And the “τdeactivation following glutamate removal” value (GluN1/GluN2D [3]; 0.3 μM compound, mean ± SEM)?
Answer: 6.6 ± 0.3 s

Question: And the “τdeactivation following glutamate removal” value (GluN1/GluN2D [3]; 1 μM compound, mean ± SEM)?
Answer: 6.9 ± 0.4 s

Question: What about the “τdeactivation following glutamate removal” value (GluN1/GluN2D [3]; 3 μM compound, mean ± SEM) of the same compound?
Answer: 8.0 ± 0.4 s

Question: And the “fold-change in IC50 for the peak and steady-state current responses” value (GluN1/GluN2D [3]; mean ± SEM, compared by ANOVA)?
Answer: 2.1 ± 0.2

Question: And the “IC50 fold higher during peak compared to steady-state” value (GluN1/GluN2D [3]; ratio of IC50 values)?
Answer: 1.9 fold

Question: And the “IC50 fold higher at first pulse compared to fifth pulse” value (GluN1/GluN2D [3]; trains of brief agonist applications)?
Answer: 3 fold
